Measured values: US20230331767A1, “TARGETED STEROID COMPOUNDS” (priority 2020, published 2023)

Assays:
macrophage [1] = assay: Flow cytometry of thioglycolate-elicited peritoneal macrophages gated on F4/80, CD 206 expression (M2 marker); format: cell-based, ND4 mice; conditions: 20 nanomolar; targeted group vs competition group (plus 100-fold excess folate-glucosamine); macrophage gated on F4/80
Procedure: (§1) FIG. 6 is an example of compound 101 in flow cytometry of macrophage gated on F4/80 to show CD 206 expression (a marker for M2, anti-inflammatory macrophages). Briefly, 1.5 mL of 3% thioglycolate were injected into the intraperitoneal cavity of 12-week-old ND4 mice. Three days later the macrophages were isolated by intraperitoneal lavage and plated in a 12-well dish and incubated at 37° C./5% CO2. After 24 hours, the media was replaced with media containing 20 nanomolar the compound in FIGS. 1 or 20 nanomolar of the compound in FIG. 1 plus 100-fold excess folate-glucosamine (to show receptor-specific binding) or untreated control or 10 nanomolar free dexamethasone (to show the effect of the free drug) and allowed to incubate at 37° C./5% CO2 for the allotted time. Then 3 days later the cells were detached and incubated with the corresponding fluorescently labeled antibodies for 1 hour at 4° C. in 1% fetal bovine serum (FBS) in phosphate- buffered saline (PBS). The samples were then washed 3 times with ice-cold 1% FBS in PBS before being analyzed by flow cytometry.

macrophage [2] = assay: Flow cytometry of macrophage, CD 86 expression (M1 marker); format: cell-based, ND4 mice; conditions: 20 nanomolar compound, with or without folate-glucosamine competition; treatment for 24 hours
Procedure: as §1, with “After 24 hours, the media was replaced with media containing 20 nanomolar the compound in FIGS.” left out, “Then 3 days later the cells were detached and incubated with the corresponding fluorescently labeled antibodies for 1 hour at 4° C. in 1% fetal bovine serum (FBS) in phosphate- buffered saline (PBS).” left out
FIG. 8 is an example of Compound 101 in flow cytometry of macrophage to show CD 86 expression with controls.

colon = conditions: 10nmols i.v. on days 3 and 4; 2.5% DSS for 6 days; treated vs untreated colon, day 6
Procedure: 8-12 week old C57BL/6 mice were maintained on a folate free diet for at least three week dextran sodium sulfate (DSS) was added to their drinking water at a final concentration of 2.5% for 6 days. […] On day 6 the mice were euthanized by CO2 affixation followed by cervical dislocation. Then the colons were excised and prepared for histology as described previously (J Vis Exp. 2012; (60): 3678.). Briefly, the colons were cut out and the fecal contents were gently removed and washed in PBS. The colons were fixed in 10% buffered formalin for 24 hrs followed by transfer to 70% ethanol. These samples were submitted to the Purdue Veterinary Pathology lab where they were embedded in paraffin, sectioned, and stained with hematoxylin and eosin.

[3] = test system: F4/80 (mouse macrophage), CD4 (T helper cell), CD8 (cytotoxic T cell), and Ly6G (neutrophil) cells; assay: Thioglycollate-induced peritonitis, flow cytometry of peritoneal lavage cells; format: in vivo, BALB/C or Swiss Webster mice; conditions: treated group vs the untreated or vehicle, peritoneal cavity; for percentage of F4/80 macrophages: 10 nmol I.V. 48 hrs after induction stated for Compound 107
Procedure: Induced peritonitis with 1.5 mL 3% thioglycollate injected I.P. into either BALB/C or Swiss Webster mice maintained on a folate free diet for at least three weeks and treated with 10 nmol Compound 107 injected I.V. 48 hrs after induction. After an additional 48 hrs the mice were euthanized, and peritoneal lavage was performed using 2% fetal bovine serum (FBS) in phosphate buffered saline (PBS). Cells were passed through a 70 µm cell filter to remove debris then counted using a hemocytometer. Approximately 1 million cells pre-incubated in anti-CD16/32 (to block endogenous Fc receptor binding) for one hour on ice in 100 µL of 2% FBS in PBS. Then the cells incubated with at least one of the following fluorescently labeled antibodies for cell surface markers: PE-F4/80 or PE/Cy7-F4/80 (mouse macrophage), FITC-CD4 (T helper cell), eFluor780-CD8 (cytotoxic T cell), and PerCP/Cy5.5-Ly6G (neutrophil) according to the manufacturers recommended procedure on ice for 1 hour. Cells were washed twice with 1 mL of ice cold 2% FBS in PBS then suspended in 2% FBS in PBS. Controls included unstained cells as the negative control as well as the use of 1 drop of compensation beads per dye-antibody (1 µL) for a positive control incubated for 1 hour on ice and washed twice with 1 mL 2% FBS in PBS. All samples were centrifuged at 400xg for 10 min between washes, transfers and after incubation to remove supernatant.
Samples and appropriate controls were analyzed on an Attune NxT Acoustic Focusing Cytometer collecting between 10,000 and 30,000 events per sample utilizing laser lines BL1-A, BL2-A, BL3-A, and YL4-A for FITC-CD4, PE-F4/80, PerCP/Cy5.5-Ly6G and eFluor780-CD8 or PE/Cy7-F4/80, respectively. Flow cytometry data analysis involved first observing the cells run in the experiment using forward and side-scattering light (FSC and SSC, respectively). All observed cells were gated (R1) and analyzed for relative abundance of F4/80 (mouse macrophage), CD4 (T helper cell), CD8 (cytotoxic T cell), and Ly6G (neutrophil) cells within the population. Values from quadrant gating based on negative controls were then represented in bar graph form.

Molecule: C[C@H]1C[C@@H]2[C@H]3CCC4=CC(=O)C=C[C@@]4(C)[C@]3(F)[C@H](O)C[C@@]2(C)[C@]1(O)C(=O)COC(=O)NCCSSC(C)(C)C(NC(=O)c1ccc(NCc2cnc3nc(N)[nH]c(=O)c3n2)cc1)C(=O)O (some centres unmarked) [Compound 101, Folate-Hydrolink-Cysteine-Carbonate-Dexamethasone]
- CD 206 expression (marker for M2, anti-inflammatory macrophages) (macrophage [1]): Increased expression of CD 206 in the targeted group over the competition group
- CD 86 expression (marker for M1, pro-inflammatory macrophages) (macrophage [2]): no observable differences

Molecule: Folate-AlbuminBinder-PEG2-Hydrolink-DimethylCysteine-Carbamate-Dexamethasone [Compound 107]
- crypt architecture (colon histology) (colon): more crypt architecture
- infiltrating immune cells (colon histology) (colon): fewer infiltrating immune cells
- number of goblet cells (colon histology) (colon): higher number of goblet cells
- percentage of FITC-CD4 (T helper cell) [3]: lower
- percentage of PerCP/Cy5.5-Ly6G (neutrophil) [3]: lower
- percentage of eFluor780-CD8 (cytotoxic T cell) [3]: lower
- percentage of F4/80 macrophages [3]: lower

Molecule: Folate-PEG2-Hydrolink-DimethylCysteine-Carbamate-Dexamethasone [Compound 106]
- percentage of F4/80 macrophages [3]: lower

Molecule: Folate-PEG12(CH2)-Pyrophosphate-Dexamethasone [Compound 108]
- percentage of FITC-CD4 (T helper cell) [3]: lower
- percentage of PerCP/Cy5.5-Ly6G (neutrophil) [3]: lower
- percentage of eFluor780-CD8 (cytotoxic T cell) [3]: lower
- percentage of F4/80 macrophages [3]: lower
